From BindingDB's records for doi:10.1124/mol.63.5.1082 (Johnson and Johnson Pharmaceutical Research and …, 2003) come the findings set out here.

Values joined by “and” are separate entries in the source; they are usually repeats but may differ in a detail not shown here. Equal entries are not always repeated.

The assay deals with Metabotropic glutamate receptor 1 (Rattus norvegicus, UniProt P23385).
Chain of Metabotropic glutamate receptor 1 (P23385 whole entry): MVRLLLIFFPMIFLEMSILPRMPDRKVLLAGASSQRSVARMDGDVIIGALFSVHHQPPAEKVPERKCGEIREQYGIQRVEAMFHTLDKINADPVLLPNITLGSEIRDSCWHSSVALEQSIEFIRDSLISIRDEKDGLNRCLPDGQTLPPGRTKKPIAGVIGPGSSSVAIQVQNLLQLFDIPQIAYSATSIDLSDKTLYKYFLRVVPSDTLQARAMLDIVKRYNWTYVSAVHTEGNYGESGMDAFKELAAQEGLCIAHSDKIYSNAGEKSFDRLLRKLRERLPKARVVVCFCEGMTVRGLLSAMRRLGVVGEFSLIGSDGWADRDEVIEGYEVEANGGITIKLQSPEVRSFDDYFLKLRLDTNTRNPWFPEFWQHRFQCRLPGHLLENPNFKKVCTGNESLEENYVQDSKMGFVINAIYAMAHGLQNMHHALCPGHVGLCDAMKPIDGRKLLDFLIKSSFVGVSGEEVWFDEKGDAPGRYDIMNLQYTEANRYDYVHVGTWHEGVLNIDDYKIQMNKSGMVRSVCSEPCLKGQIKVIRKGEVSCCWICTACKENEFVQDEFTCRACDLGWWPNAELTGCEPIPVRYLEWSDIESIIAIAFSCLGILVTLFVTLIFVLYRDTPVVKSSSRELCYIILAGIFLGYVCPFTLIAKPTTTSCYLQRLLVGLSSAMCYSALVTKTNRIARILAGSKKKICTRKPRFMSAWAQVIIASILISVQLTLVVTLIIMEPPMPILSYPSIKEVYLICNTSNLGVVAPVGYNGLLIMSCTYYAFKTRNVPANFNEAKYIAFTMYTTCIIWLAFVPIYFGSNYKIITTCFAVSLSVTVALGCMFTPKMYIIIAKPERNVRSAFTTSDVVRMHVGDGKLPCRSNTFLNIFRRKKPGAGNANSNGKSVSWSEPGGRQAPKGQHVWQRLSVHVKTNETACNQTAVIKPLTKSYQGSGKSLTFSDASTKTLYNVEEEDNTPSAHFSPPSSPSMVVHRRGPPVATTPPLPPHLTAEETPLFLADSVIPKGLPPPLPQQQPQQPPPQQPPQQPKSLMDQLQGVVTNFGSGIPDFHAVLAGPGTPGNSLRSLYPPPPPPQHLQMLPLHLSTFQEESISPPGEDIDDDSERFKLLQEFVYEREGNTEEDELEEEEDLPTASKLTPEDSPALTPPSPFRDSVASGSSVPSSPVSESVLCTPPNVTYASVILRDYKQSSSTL
Consider `O=C(Cc1ccccc1)c1ccc2nc3c(cc2c1)CCCO3`, for which the affinity, expressed as Ki, was 1000 nM.
In the case of `CCOC(=O)C12CC1C(N=O)c1ccccc1O2` (stereo not drawn) [CAS_5126051] it was 1000 nM and 4900 nM; in that of `N[C@H](C(=O)O)c1cc(O)cc(O)c1` [amino(3,5-dihydroxyphenyl)acetic acid], more than 10000 nM.
